Patent US10259817B2, “Crystal (6S,9aS)-N-benzyl-8-({6-[3-(4-ethylpiperazin-1-yl)azetidin-1-yl]pyridin-2-yl}methyl)-6-(2-fluoro-4-hydroxybenzyl)-4,7-dioxo-2-(prop-2-en-1-yl)hexahydro-2H-pyrazino[2,1-c][1,2,4]triazine-1(6H)-carboxamide” (Eisai R&D Management Co., Ltd., priority 2015, dated 2019)

How the values were obtained:
[1] = tested on: human chronic myologenous leukemia cell strain K562; settings: day 28; Dasatinib 5 mg/kg alone, oral qd 5 days + 2-day holiday, two cycles
Text: A preparation of a human chronic myologenous leukemia cell strain K562 (which had been cultured in a RPMI-1640 liquid culture medium supplemented with 10% FBS and penicillin/streptomycin) which was so prepared with PBS (Wako Pure Chemical Industries, Ltd.; Cat#045-29795) that the density became 2×10^8 cells/mL was mixed with [sequence] (BD Biosicence, Cat#: 354234) at a mixing ratio of 1:1, thereby preparing a cell suspension having a density of 1×10^8 cells/mL. The resulting cell suspension was transplanted subcutaneously into the right flank of each of six-week-old nude mice (CAnN.Cg-Foxn1nu/CrlCrlj, female, Charles River Laboratories Japan) at a dose of 100 μL. Seven days after the transplantation, the shorter diameter and the longer diameter of a tumor were measured using an electronic digital caliper (Digimatic™ Caliper, Mitutoyo Corporation) to calculate the tumor volume in accordance with the following equation. Tumor volume (mm^3)=(longer diameter (mm))×(shorter diameter (mm))×(shorter diameter (mm))/2
The mice were grouped in such a manner that the average value of the tumor volumes in mice in a group, which were determined on the basis of the tumor volume on the first day of the administration. […]

[2] = tested on: Wnt signal; experiment: Detection of Wnt signal (TOPglow luciferase reporter, LiCl-stimulated HEK293 clone); assay type: cell-based; settings: Homo sapiens; HEK293 pNeo-TOP clone, LiCl added, luciferase emission; read-out: IC50, concentration required for inhibiting the Wnt signal activity by 50%
Text: The plasmid pNeo-TOP was introduced into human fetus-derived renal cell strain HEK293, then a compound was selected using G418, and then a cell clone strain was established by a limiting dilution method. The cell clone strain was subjected to a Wnt signal detection test.
The cell clone strain was subcultured in a D-MEM glucose-rich culture medium (Wako Pure Chemical Industries, Ltd.) containing 10% FBS, and cells in a growth phase were used in the test. Cells were collected using trypsin-EDTA, the number of the cells was counted, and then the cells were suspended in a D-MEM glucose-rich culture medium containing 10% FBS so that the number of cells became 2×10^5 cells/mL. The cell suspension was added to a 96-well cell culture plate (Greiner Bio-One Co., Ltd., product number: 655083) in an amount of 0.1 mL/well and then cultured overnight in a 5% CO2 incubator (37° C.). After the culturing, a substance to be tested, which was dissolved in DMSO, was diluted with a D-MEM glucose-rich culture medium containing 10% of FBS and 80 mM of LiCl to produce a sample solution. The sample solution (0.1 mL) was added to each well and then cultured in a 5% CO2 incubator (37° C.) overnight. […] The plate was put on a plate mixer for several seconds, and then the emission of light from each well was measured using a EnVision™ Multilabel plate reader (PerkinElmer Co., Ltd.). […]

| IC50 [2] | SMILES | the number of individuals in which a tumor was not observed by visual judgment/total number of administered individuals [1] |
| --- | --- | --- |
| – | Cc1nc(Nc2ncc(C(=O)Nc3c(C)cccc3Cl)s2)cc(N2CCN(CCO)CC2)n1 [Dasatinib] | 0/9 |
| 60 nM | C=CCN1CC(=O)N2[C@@H](Cc3ccc(O)cc3F)C(=O)N(Cc3cccc(N4CC(N5CCN(CC)CC5)C4)n3)C[C@@H]2N1C(=O)NCc1ccccc1 [Example 1, (6S,9aS)-N-benzyl-8-({6-[3-(4-ethylpiperazin-1-yl)azetidin-1-yl]pyridin-2-yl}methyl)-6-(2-fluoro-4-hydroxybenzyl)-4,7-dioxo-2-(prop-2-en-1-yl)hexahydro-2H-pyrazino[2,1-c][1,2,4]triazine-1(6H)-carboxamide] | – |
